Assay results from EP0338756B1, “Use of 1,2,4-trioxanes as antiparasitics and anthelmintics” (OXACO S.A., priority 1988, dated 1989).

How the values were obtained:
[1] = test system: Onchocerca gutturosa; assay: Tetrazolium colorimetric test (formazan formation), using parasites, medium, cells and test drug; settings: 5x10⁻⁵ M printed for the test Compounds
Protocol: A suitable colorimetric assay uses formation of formazan, a blue dye, from tetrazolium cation generated by 3-[…] bromide (J Helminth (1987) 60, 271). Firstly, Compounds 1, 2, 3, 4, 5, 7, 8, 9, 11 and 12, along with artemisinin and arteether were tested using parasites, medium, cells and test drug.

[2] = test system: Onchocerca gutturosa; assay: Onchocerca gutturosa motility, using parasites, medium, serum, cells and test drugs; settings: with serum and cells
Protocol: (§1) Testing in vitro against Onchocerca gutturosa is a valid model for activity against Onchocerca volvulus. Testing of test drugs (Compounds 1, 2, 3, 4, 5, 7, 8, 9, 11, and 12 of Table 1) against the parasitic worms Onchocerca gutturosa was carried out in accordance with the method described in J Helminth (1987) 60, 271, firstly using parasites, medium, serum, cells and test drugs.

[3] = test system: Onchocerca gutturosa; assay: Onchocerca gutturosa motility, using parasites, medium and drug; settings: medium and drug only, time not given
Protocol: as §1, with “drugs. Secondly, test drugs (Compounds 2, 3, 4, 7, 8, 9 and 12 of Table 1) were tested using parasites, medium and drug. […] However, between 4 and 7 days, all the tested Compounds had completely immobilized the worms. Under these conditions, commercial anti-helminthic drugs and artemisinin also cut motility by some 30-40%.” for “drugs.”

CC1(C)OO[C@]2(c3ccccc3)CCC(c3ccccc3)=C[C@@H]2O1 (relative stereo) [Compound 12] was tested, and the “inhibition of formazan formation” value [1] was “more than 90%”, the reduced motility ([2]; after 7 days) was 100% and the effect on motility ([2]; two to three days exposure) was “markedly inhibitory”.
CCO[C@H]1O[C@@H]2O[C@@]3(C)CC[C@H]4[C@H](C)CC[C@@H]([C@H]1C)[C@@]24OO3 [arteether] was tested, and the reduced motility ([2]; after a day) was 30%.
In the case of C[C@@H]1CC[C@H]2[C@@H](C)C(=O)O[C@@H]3O[C@@]4(C)CC[C@@H]1[C@]32OO4 [artemisinin, Artemisinin], the effect on motility ([2]; a day's exposure) is reported as “ineffective” and the cut motility [3] is reported as 30-40%.
